According to PubChem BioAssay AID330 (DTP/NCI, 2004):
Where “and” joins values, the source holds several entries; their conditions need not be identical. Identical values can stand only once. Inconclusive results and toxic doses are left out. Peptide text beside a SMILES is read from it. * marks the point of attachment. Cbz = O=C(OCc1ccccc1)*

Test system: P388 leukemia ip, CD2F1 mice, survival T/C
Experiment: NCI In Vivo Anticancer Drug Screen. Data for tumor model P388 Leukemia (intraperitoneal) in CD2F1 (CDF1) mice
Details: endpoint: median survival time, higher = longer survival
Outline: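 Mice carrying the transplanted tumor received test compound or vehicle. Survival was recorded in each group, and the value is the treated-group measurement divided by that of the vehicle-treated control group.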

[1] = dose: 50.0 mg/kg/injection, schedule: Q01DX009 (ip), vehicle: Klucel (hydroxypropylcellulose) (HPC)
[2] = dose: 100.0 mg/kg/injection, schedule: Q01DX009 (ip), vehicle: Klucel (hydroxypropylcellulose) (HPC)
[3] = dose: 200.0 mg/kg/injection, schedule: Q01DX009 (ip), vehicle: Klucel (hydroxypropylcellulose) (HPC)
[4] = dose: 60.0 mg/kg/injection, schedule: Q01DX005 (ip), vehicle: saline with Tween-80
[5] = dose: 120.0 mg/kg/injection, schedule: Q01DX005 (ip), vehicle: saline with Tween-80
[6] = dose: 240.0 mg/kg/injection, schedule: Q01DX005 (ip), vehicle: saline with Tween-80
[7] = dose: 50.0 mg/kg/injection, schedule: Q01DX005 (ip), vehicle: saline with Tween-80
[8] = dose: 100.0 mg/kg/injection, schedule: Q01DX005 (ip), vehicle: saline with Tween-80
[9] = dose: 200.0 mg/kg/injection, schedule: Q01DX005 (ip), vehicle: saline with Tween-80
[10] = dose: 25.0 mg/kg/injection, schedule: Q01DX009 (ip), vehicle: saline with Tween-80
[11] = dose: 50.0 mg/kg/injection, schedule: Q01DX009 (ip), vehicle: saline with Tween-80
[12] = dose: 100.0 mg/kg/injection, schedule: Q01DX009 (ip), vehicle: saline with Tween-80
[13] = dose: 60.0 mg/kg/injection, schedule: Q01DX005 (ip), vehicle: Klucel (hydroxypropylcellulose) (HPC)
[14] = dose: 60.0 mg/kg/injection, schedule: Q01DX005 (ip), vehicle: saline
[15] = dose: 120.0 mg/kg/injection, schedule: Q01DX005 (ip), vehicle: saline
[16] = dose: 240.0 mg/kg/injection, schedule: Q01DX005 (ip), vehicle: saline
[17] = dose: 50.0 mg/kg/injection, schedule: Q01DX005 (ip), vehicle: Klucel (hydroxypropylcellulose) (HPC)
[18] = dose: 100.0 mg/kg/injection, schedule: Q01DX005 (ip), vehicle: Klucel (hydroxypropylcellulose) (HPC)
[19] = dose: 200.0 mg/kg/injection, schedule: Q01DX005 (ip), vehicle: Klucel (hydroxypropylcellulose) (HPC)
[20] = dose: 120.0 mg/kg/injection, schedule: Q01DX005 (ip), vehicle: Klucel (hydroxypropylcellulose) (HPC)
[21] = dose: 240.0 mg/kg/injection, schedule: Q01DX005 (ip), vehicle: Klucel (hydroxypropylcellulose) (HPC)

Cc1ccc(C(=O)N/N=C/C(=O)O)cc1
T/C (dose: 12.5 mg/kg/injection, schedule: Q01DX009 (ip), vehicle: Klucel (hydroxypropylcellulose) (HPC)): 94 % of control | T/C (dose: 25.0 mg/kg/injection, schedule: Q01DX009 (ip), vehicle: Klucel (hydroxypropylcellulose) (HPC)): 95 % of control | T/C [1]: 94 % of control | T/C [2]: 88 % of control | T/C [3]: 88 % of control

COc1ccccc1C(O)c1cnc(C)n1Cc1ccccc1 (stereo not given)
T/C [4]: 98 % of control | T/C [5]: 107 % of control | T/C [6]: 97 % of control

C=C(C)C(=O)OC1C/C(CO)=C\C(OC(C)=O)C/C(C)=C/C2OC(=O)C(=C)C21 (stereo not given)
T/C (dose: 3.75 mg/kg/injection, schedule: Q01DX009 (ip), vehicle: saline + alcohol): 113 % of control | T/C (dose: 7.5 mg/kg/injection, schedule: Q01DX009 (ip), vehicle: saline + alcohol): 115 % of control | T/C (dose: 15.0 mg/kg/injection, schedule: Q01DX009 (ip), vehicle: saline + alcohol): 120 % of control

COC(OC)C(C)(C)NC1CCCCC1
T/C (dose: 50.0 mg/kg/injection, schedule: Q01DX009 (ip), vehicle: saline): 105 % of control | T/C (dose: 100.0 mg/kg/injection, schedule: Q01DX009 (ip), vehicle: saline): 104 % of control

Nc1nc(I)c2ncn(C3OC(CO)C(O)C3O)c2n1 (stereo not given)
T/C [7]: 98 % of control | T/C [8]: 92 % of control | T/C [9]: 96 % of control

CN1CC(CO)=CC2c3cccc4[nH]cc(c34)CC21 (stereo not given)
T/C [10]: 111 % of control | T/C [11]: 104 % of control | T/C [12]: 104 % of control

O=C(NC1(Sc2ccccc2)CC1)c1ccc(Cl)cc1
T/C (dose: 15.0 mg/kg/injection, schedule: Q01DX005 (ip), vehicle: Klucel (hydroxypropylcellulose) (HPC)): 98 % of control | T/C (dose: 30.0 mg/kg/injection, schedule: Q01DX005 (ip), vehicle: Klucel (hydroxypropylcellulose) (HPC)): 88 % of control | T/C [13]: 88 % of control

Nc1cc(N)n(C2=NCCN2)n1
T/C [14]: 104 % of control | T/C [15]: 104 % of control | T/C [16]: 98 % of control

c1cc2cc(-c3ccc4oc(C5=NCCN5)cc4c3)[nH]c2cc1C1=NCCN1
T/C [17]: 163 % of control | T/C [18]: 160 % of control | T/C [19]: 193 % of control

Cc1ccc(-c2cc(-c3cc(-c4ccc(C)cc4)nc(N)n3)nc(N)n2)cc1
T/C [14]: 90 % of control | T/C [15]: 96 % of control | T/C [16]: 97 % of control

COC(=O)c1csc(-c2ccc(CO)o2)n1
T/C [7]: 105 % of control | T/C [8]: 98 % of control | T/C [9]: 93 % of control

COC(=O)C1=NC(=S)N=C(C(=O)OC)C1(C)C(=O)c1ccc(Cl)cc1
T/C [4]: 95 % of control | T/C [5]: 99 % of control | T/C [6]: 94 % of control

COc1cc(/C=N\Nc2ccccc2[N+](=O)[O-])cc(OC)c1OC
T/C (dose: 100.0 mg/kg/injection, schedule: Q04DX003 (ip), vehicle: saline with Tween-80): 87 % of control | T/C (dose: 200.0 mg/kg/injection, schedule: Q04DX003 (ip), vehicle: saline with Tween-80): 87 % of control | T/C (dose: 400.0 mg/kg/injection, schedule: Q04DX003 (ip), vehicle: saline with Tween-80): 91 % of control

O=C1C(c2ccccc2)=C(c2ccccc2)C2(c3ccccc3)Oc3c(Cl)c(Cl)c(Cl)c(Cl)c3OC12c1ccccc1 (stereo not given)
T/C [11]: 89 % of control | T/C [12]: 93 % of control

CC(=O)Nn1cnc2[nH]ncc2c1=O
T/C [14]: 102 % of control | T/C [15]: 101 % of control | T/C [16]: 101 % of control

CCOP(=S)(OCC)Oc1cc(C)nc(C(C)C)n1
T/C [11]: 112 % of control | T/C [12]: 111 % of control

C=CCN1C(=O)NC(=O)C(c2ccccc2)C1=O (stereo not given)
T/C [1]: 98 % of control | T/C [2]: 100 % of control | T/C [3]: 92 % of control

CC(C)(C)OC(=O)NNS(=O)(=O)CCC(NC(=O)OCc1ccccc1)C(=O)OCc1ccccc1 (stereo not given)
T/C (dose: 12.5 mg/kg/injection, schedule: Q01DX009 (ip), vehicle: other): 100 % of control | T/C (dose: 25.0 mg/kg/injection, schedule: Q01DX009 (ip), vehicle: other): 97 % of control | T/C (dose: 50.0 mg/kg/injection, schedule: Q01DX009 (ip), vehicle: other): 92 % of control | T/C (dose: 100.0 mg/kg/injection, schedule: Q01DX009 (ip), vehicle: other): 88 % of control | T/C (dose: 200.0 mg/kg/injection, schedule: Q01DX009 (ip), vehicle: other): 90 % of control

COc1cc(C(=O)NNC(=O)C2CCC(=O)N2Cc2ccccc2)cc(OC)c1OC (stereo not given)
T/C [4]: 89 % of control | T/C [5]: 90 % of control | T/C [6]: 87 % of control

CN1CCc2c(n(C)c3ccccc23)C1=O
T/C (dose: 25.0 mg/kg/injection, schedule: Q04DX002 (ip), vehicle: saline with Tween-80): 102 % of control | T/C (dose: 50.0 mg/kg/injection, schedule: Q04DX002 (ip), vehicle: saline with Tween-80): 98 % of control | T/C (dose: 100.0 mg/kg/injection, schedule: Q04DX002 (ip), vehicle: saline with Tween-80): 106 % of control | T/C (dose: 200.0 mg/kg/injection, schedule: Q04DX002 (ip), vehicle: saline with Tween-80): 101 % of control | T/C (dose: 400.0 mg/kg/injection, schedule: Q04DX002 (ip), vehicle: saline with Tween-80): 99 % of control

Cc1ccc2nc3ccccc3c(SCCCCCCSc3c4ccccc4nc4ccc(C)cc34)c2c1
T/C [13]: 89 % of control | T/C [4]: 107 % of control | T/C [20]: 87 % of control | T/C [5]: 90 % of control | T/C [21]: 87 % of control

CC(=O)NC(CCCCN)C(=O)O (stereo not given)
T/C [17]: 103 % of control | T/C [18]: 101 % of control | T/C [19]: 102 % of control

O=P1(c2ccccc2)C=C(c2ccccc2)NC(c2ccccc2)=C1
T/C [7]: 93 % of control | T/C [9]: 90 % of control

O=C1NC(=O)N(C(F)(F)F)C(F)(F)N1C(F)(F)F
T/C [17]: 107 % of control | T/C [18]: 107 % of control

O=c1[nH]ccc2nc(-c3ccccc3)cn12
T/C (dose: 100.0 mg/kg/injection, schedule: Q04DX003 (ip), vehicle: Klucel (hydroxypropylcellulose) (HPC)): 106 % of control | T/C (dose: 200.0 mg/kg/injection, schedule: Q04DX003 (ip), vehicle: Klucel (hydroxypropylcellulose) (HPC)): 104 % of control | T/C (dose: 400.0 mg/kg/injection, schedule: Q04DX003 (ip), vehicle: Klucel (hydroxypropylcellulose) (HPC)): 105 % of control

CSCCC(NC(=O)C1CCCN1C(=O)OCc1ccccc1)C(=O)O (stereo not drawn) (Cbz-Pro-Met-OH; configuration not given here)
T/C [7]: 104 % of control | T/C [8]: 106 % of control | T/C [9]: 105 % of control

NS(=O)(=O)c1cc(S(=O)(=O)Cl)ccc1Cl
T/C (dose: 12.5 mg/kg/injection, schedule: Q01DX005 (ip), vehicle: saline with Tween-80): 100 % of control | T/C (dose: 25.0 mg/kg/injection, schedule: Q01DX005 (ip), vehicle: saline with Tween-80): 100 % of control | T/C [7]: 99 % of control and 94 % of control

O=C1C(F)=C(N2CC2)C(=O)C(F)=C1N1CC1
T/C (dose: 1.56 mg/kg/injection, schedule: Q01DX009 (ip), vehicle: saline): 115 % of control | T/C (dose: 3.12 mg/kg/injection, schedule: Q01DX009 (ip), vehicle: saline): 114 % of control | T/C (dose: 6.25 mg/kg/injection, schedule: Q01DX009 (ip), vehicle: saline): 150 % of control

Cc1ccc(NC(=S)C#N)c(C)c1
T/C (dose: 15.0 mg/kg/injection, schedule: Q01DX005 (ip), vehicle: saline with Tween-80): 102 % of control | T/C (dose: 30.0 mg/kg/injection, schedule: Q01DX005 (ip), vehicle: saline with Tween-80): 98 % of control | T/C [4]: 98 % of control and 106 % of control

CCCN(C)CC(C)(O)CNc1cc(OC)cc2cccnc12 (stereo not given)
T/C (dose: 12.5 mg/kg/injection, schedule: Q01DX005 (ip), vehicle: saline): 100 % of control | T/C (dose: 25.0 mg/kg/injection, schedule: Q01DX005 (ip), vehicle: saline): 95 % of control | T/C [7]: 106 % of control | T/C (dose: 50.0 mg/kg/injection, schedule: Q01DX005 (ip), vehicle: saline): 99 % of control

CC1(c2cccc(N(CCCl)CCCl)c2)NC(=O)NC1=O (stereo not given)
T/C [10]: 166 % of control | T/C [11]: 184 % of control and 204 % of control | T/C [12]: 90 % of control

N#CC1=C(N)OC(C2CC2)=C(C#N)C1c1cccs1 (stereo not given)
T/C [13]: 104 % of control | T/C [20]: 100 % of control | T/C [21]: 96 % of control
